{"source": "the CombiSolv-Exp solvation set (Vermeire and Green 2021)", "test": "solvent given as SMILES"}
{"smiles": "CCCC(=O)CC", "values": [{"measurement": "solvation free energy, 298 K", "setting": "in O", "value": -3.07, "unit": "kcal/mol"}]}
{"smiles": "N", "values": [{"measurement": "solvation free energy, 298 K", "setting": "in CC(C)=O", "value": -2.02, "unit": "kcal/mol"}, {"measurement": "solvation free energy, 298 K", "setting": "in CC(C)CO", "value": -2.54, "unit": "kcal/mol"}, {"measurement": "solvation free energy, 298 K", "setting": "in CC(C)O", "value": -2.37, "unit": "kcal/mol"}, {"measurement": "solvation free energy, 298 K", "setting": "in CCC(C)=O", "value": -1.94, "unit": "kcal/mol"}, {"measurement": "solvation free energy, 298 K", "setting": "in CCCCCCC", "value": -1.27, "unit": "kcal/mol"}, {"measurement": "solvation free energy, 298 K", "setting": "in CCCCO", "value": -2.4, "unit": "kcal/mol"}, {"measurement": "solvation free energy, 298 K", "setting": "in CCCO", "value": -2.4, "unit": "kcal/mol"}, {"measurement": "solvation free energy, 298 K", "setting": "in CCO", "value": -2.65, "unit": "kcal/mol"}, {"measurement": "solvation free energy, 298 K", "setting": "in CN1CCCC1=O", "value": -1.85, "unit": "kcal/mol"}, {"measurement": "solvation free energy, 298 K", "setting": "in CO", "value": -3.08, "unit": "kcal/mol"}, {"measurement": "solvation free energy, 298 K", "setting": "in ClC(Cl)Cl", "value": -2.41, "unit": "kcal/mol"}, {"measurement": "solvation free energy, 298 K", "setting": "in Clc1ccccc1", "value": -1.36, "unit": "kcal/mol"}, {"measurement": "solvation free energy, 298 K", "setting": "in O", "value": -4.34, "unit": "kcal/mol"}]}
{"smiles": "COC(CCl)(OC)OC", "values": [{"measurement": "solvation free energy, 298 K", "setting": "in O", "value": -4.59, "unit": "kcal/mol"}]}
{"smiles": "COC(=O)C1CCCCC1", "values": [{"measurement": "solvation free energy, 298 K", "setting": "in O", "value": -3.3, "unit": "kcal/mol"}]}
{"smiles": "CC(C)C1CCC2(C)C3CC4C(C13)C42C", "note": "(centres undefined)", "values": [{"measurement": "solvation free energy, 298 K", "setting": "in O", "value": 1.13, "unit": "kcal/mol"}]}
{"smiles": "CCCCCCCCCCC", "values": [{"measurement": "solvation free energy, 298 K", "setting": "in CCCCCC", "value": -7.56, "unit": "kcal/mol"}, {"measurement": "solvation free energy, 298 K", "setting": "in CN(C)C=O", "value": -5.57, "unit": "kcal/mol"}, {"measurement": "solvation free energy, 298 K", "setting": "in COCCO", "value": -5.15, "unit": "kcal/mol"}]}
{"smiles": "CCOC=O", "values": [{"measurement": "solvation free energy, 298 K", "setting": "in C=CCCCCCCCCCCCCCC", "value": -2.62, "unit": "kcal/mol"}, {"measurement": "solvation free energy, 298 K", "setting": "in CC(C)O", "value": -3.15, "unit": "kcal/mol"}, {"measurement": "solvation free energy, 298 K", "setting": "in CCC(C)=O", "value": -3.71, "unit": "kcal/mol"}, {"measurement": "solvation free energy, 298 K", "setting": "in CCCCCCCCCCCCCCCC", "value": -2.55, "unit": "kcal/mol"}, {"measurement": "solvation free energy, 298 K", "setting": "in CCCCCCCCO", "value": -2.98, "unit": "kcal/mol"}, {"measurement": "solvation free energy, 298 K", "setting": "in ClC(Cl)(Cl)Cl", "value": -3.33, "unit": "kcal/mol"}, {"measurement": "solvation free energy, 298 K", "setting": "in ClC(Cl)Cl", "value": -4.37, "unit": "kcal/mol"}, {"measurement": "solvation free energy, 298 K", "setting": "in O", "value": -2.64, "unit": "kcal/mol"}, {"measurement": "solvation free energy, 298 K", "setting": "in [2H]O[2H]", "value": -2.64, "unit": "kcal/mol"}]}
{"smiles": "CC=CC=CC", "values": [{"measurement": "solvation free energy, 298 K", "setting": "in C=CCCCCCCCCCCCCCC", "value": -3.86, "unit": "kcal/mol"}, {"measurement": "solvation free energy, 298 K", "setting": "in O", "value": 0.61, "unit": "kcal/mol"}]}
{"smiles": "C=CCC=CC", "values": [{"measurement": "solvation free energy, 298 K", "setting": "in C=CCCCCCCCCCCCCCC", "value": -3.46, "unit": "kcal/mol"}, {"measurement": "solvation free energy, 298 K", "setting": "in O", "value": 1.09, "unit": "kcal/mol"}]}
{"smiles": "CC(=O)C(C)O", "note": "(centres undefined)", "values": [{"measurement": "solvation free energy, 298 K", "setting": "in O", "value": -4.29, "unit": "kcal/mol"}]}
{"smiles": "CCCCCCI", "values": [{"measurement": "solvation free energy, 298 K", "setting": "in O", "value": 0.08, "unit": "kcal/mol"}]}
{"smiles": "Cc1ccc(C(=O)O)cc1C", "values": [{"measurement": "solvation free energy, 298 K", "setting": "in CN(C)C=O", "value": -11.6, "unit": "kcal/mol"}, {"measurement": "solvation free energy, 298 K", "setting": "in O", "value": -6.55, "unit": "kcal/mol"}]}
{"smiles": "CCCCCN(CCCCC)N=O", "values": [{"measurement": "solvation free energy, 298 K", "setting": "in CC(C)CC(C)(C)C", "value": -9.29, "unit": "kcal/mol"}]}
{"smiles": "FC(F)(F)C(F)(F)C(F)(F)C(F)(F)C(F)(F)C(F)(F)F", "values": [{"measurement": "solvation free energy, 298 K", "setting": "in CCCCCC", "value": -2.12, "unit": "kcal/mol"}, {"measurement": "solvation free energy, 298 K", "setting": "in CCCO", "value": -0.96, "unit": "kcal/mol"}]}
{"smiles": "CC1CCCCC1", "values": [{"measurement": "solvation free energy, 298 K", "setting": "in C1CCOC1", "value": -4.67, "unit": "kcal/mol"}, {"measurement": "solvation free energy, 298 K", "setting": "in C1COCCO1", "value": -4.09, "unit": "kcal/mol"}, {"measurement": "solvation free energy, 298 K", "setting": "in CC1CCS(=O)(=O)C1", "value": -3, "unit": "kcal/mol"}, {"measurement": "solvation free energy, 298 K", "setting": "in CC#N", "value": -3.28, "unit": "kcal/mol"}, {"measurement": "solvation free energy, 298 K", "setting": "in CC(=O)N(C)C", "value": -3.68, "unit": "kcal/mol"}, {"measurement": "solvation free energy, 298 K", "setting": "in CC(C)=O", "value": -3.93, "unit": "kcal/mol"}, {"measurement": "solvation free energy, 298 K", "setting": "in CC(C)CCCC(C)CCCC(C)CCCCC(C)CCCC(C)CCCC(C)C", "value": -4.3, "unit": "kcal/mol"}, {"measurement": "solvation free energy, 298 K", "setting": "in CC(C)O", "value": -3.79, "unit": "kcal/mol"}, {"measurement": "solvation free energy, 298 K", "setting": "in CCC#N", "value": -4.07, "unit": "kcal/mol"}, {"measurement": "solvation free energy, 298 K", "setting": "in CCC(C)=O", "value": -4.12, "unit": "kcal/mol"}, {"measurement": "solvation free energy, 298 K", "setting": "in CCCC#N", "value": -3.63, "unit": "kcal/mol"}, {"measurement": "solvation free energy, 298 K", "setting": "in CCCCC(CC)COC(=O)c1ccccc1C(=O)OCC(CC)CCCC", "value": -3.99, "unit": "kcal/mol"}, {"measurement": "solvation free energy, 298 K", "setting": "in CCCCCCC", "value": -4.79, "unit": "kcal/mol"}, {"measurement": "solvation free energy, 298 K", "setting": "in CCCCCCCCC=CCCCCCCCC(=O)OCC(COC(=O)CCCCCCCC=CCCCCCCCC)OC(=O)CCCCCCCC=CCCCCCCCC", "value": -4.26, "unit": "kcal/mol"}, {"measurement": "solvation free energy, 298 K", "setting": "in CCCCCCCCCC", "value": -4.57, "unit": "kcal/mol"}, {"measurement": "solvation free energy, 298 K", "setting": "in CCCCCCCO", "value": -4.16, "unit": "kcal/mol"}, {"measurement": "solvation free energy, 298 K", "setting": "in CCCCN(C=O)CCCC", "value": -4.05, "unit": "kcal/mol"}, {"measurement": "solvation free energy, 298 K", "setting": "in CCCCOC(=O)c1ccccc1C(=O)OCCCC", "value": -4.11, "unit": "kcal/mol"}, {"measurement": "solvation free energy, 298 K", "setting": "in CCOC(=O)c1ccccc1C(=O)OCC", "value": -3.59, "unit": "kcal/mol"}, {"measurement": "solvation free energy, 298 K", "setting": "in CN1CCCC1=O", "value": -3.59, "unit": "kcal/mol"}, {"measurement": "solvation free energy, 298 K", "setting": "in CN1CCCCC1=O", "value": -3.72, "unit": "kcal/mol"}, {"measurement": "solvation free energy, 298 K", "setting": "in CN(C)C=O", "value": -3.52, "unit": "kcal/mol"}, {"measurement": "solvation free energy, 298 K", "setting": "in CNC(C)=O", "value": -3.59, "unit": "kcal/mol"}, {"measurement": "solvation free energy, 298 K", "setting": "in CNC=O", "value": -3.18, "unit": "kcal/mol"}, {"measurement": "solvation free energy, 298 K", "setting": "in COC(C)(C)C", "value": -4.8, "unit": "kcal/mol"}, {"measurement": "solvation free energy, 298 K", "setting": "in COCCO", "value": -3.47, "unit": "kcal/mol"}, {"measurement": "solvation free energy, 298 K", "setting": "in CS(C)=O", "value": -2.73, "unit": "kcal/mol"}, {"measurement": "solvation free energy, 298 K", "setting": "in NC=O", "value": -1.42, "unit": "kcal/mol"}, {"measurement": "solvation free energy, 298 K", "setting": "in Nc1ccccc1", "value": -3.29, "unit": "kcal/mol"}, {"measurement": "solvation free energy, 298 K", "setting": "in O", "value": 1.7, "unit": "kcal/mol"}, {"measurement": "solvation free energy, 298 K", "setting": "in O=C1CCCO1", "value": -3, "unit": "kcal/mol"}, {"measurement": "solvation free energy, 298 K", "setting": "in O=CN1CCOCC1", "value": -2.94, "unit": "kcal/mol"}, {"measurement": "solvation free energy, 298 K", "setting": "in OCCCCCO", "value": -2.87, "unit": "kcal/mol"}, {"measurement": "solvation free energy, 298 K", "setting": "in OCCCCO", "value": -2.77, "unit": "kcal/mol"}, {"measurement": "solvation free energy, 298 K", "setting": "in OCCCO", "value": -2.39, "unit": "kcal/mol"}, {"measurement": "solvation free energy, 298 K", "setting": "in OCCO", "value": -1.58, "unit": "kcal/mol"}, {"measurement": "solvation free energy, 298 K", "setting": "in OCCOCCO", "value": -2.38, "unit": "kcal/mol"}, {"measurement": "solvation free energy, 298 K", "setting": "in OCCOCCOCCO", "value": -2.44, "unit": "kcal/mol"}, {"measurement": "solvation free energy, 298 K", "setting": "in OCCOCCOCCOCCO", "value": -2.55, "unit": "kcal/mol"}, {"measurement": "solvation free energy, 298 K", "setting": "in OCCS", "value": -2.82, "unit": "kcal/mol"}]}
{"smiles": "O=C(OCc1ccccc1)c1ccccc1C(=O)OCc1ccccc1", "values": [{"measurement": "solvation free energy, 298 K", "setting": "in O", "value": -11.3, "unit": "kcal/mol"}]}
{"smiles": "CCCCCCCCN", "values": [{"measurement": "solvation free energy, 298 K", "setting": "in CCCCCCC", "value": -6.96, "unit": "kcal/mol"}, {"measurement": "solvation free energy, 298 K", "setting": "in O", "value": -3.73, "unit": "kcal/mol"}]}
{"smiles": "CCCCC(=O)O", "values": [{"measurement": "solvation free energy, 298 K", "setting": "in O", "value": -6.13, "unit": "kcal/mol"}]}
